Experiments:
Recombinant CYB5R3 = molecular target: T1, Recombinant CYB5R3 (Homo sapiens, UniProt P00387); test: Reduction of oxidized myoglobin by recombinant CYB5R3 (NADH-initiated, absorbance); format: biochemical
T1 sequence (P00387 1-301): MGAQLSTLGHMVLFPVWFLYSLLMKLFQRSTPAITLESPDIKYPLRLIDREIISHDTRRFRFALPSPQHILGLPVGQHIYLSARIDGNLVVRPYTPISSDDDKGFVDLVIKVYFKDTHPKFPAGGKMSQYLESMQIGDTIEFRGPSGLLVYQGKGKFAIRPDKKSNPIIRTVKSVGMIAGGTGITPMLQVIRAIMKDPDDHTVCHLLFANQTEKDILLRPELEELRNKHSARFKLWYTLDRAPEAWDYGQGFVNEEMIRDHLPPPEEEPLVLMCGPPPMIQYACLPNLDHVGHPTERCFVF
Procedure: FIGS. 2a-2c. Reduction of oxidized myoglobin by CYB5R3 is not affected by (FIG. 2a) oleic acid or (FIG. 2b) Q-OA (CoQ-linked oleic acid). Q-NA enhanced (FIG. 2c) CYB5R3 reduction of myoglobin. Error bars are S.E.M. and n=3.
Recombinant CYB5R3 was incubated with nitro-oleic acid, CoQ-linked oleic acid or Q-NA along with oxidized myoglobin. NADH stimulation initiated the reaction and absorbance changes were monitored which is indicative of myoglobin reduction. Q-NA increased myoglobin heme reduction whereas the other compounds had no effect (FIG. 2). Q-NA alone had no effect on myoglobin reduction.

[1] = test system: RPS/RPL gene expression in human aortic endothelial cells; test: RPS/RPL gene transcription in human aortic endothelial cells (RNA sequencing); format: cell-based; conditions: 5 μM, 6 hours
Procedure: FIG. 9. NO2—OA and Q-NA stimulate divergent effects of RSP/RPL gene transcription in aortic endothelial cells.
Human aortic endothelial cells were stimulated with vehicle (dimethylsulfoxide, (DMSO)), 5 μM of NO2—OA, or 5 μM Q-NA. Following 6 hours of stimulation, cells were lysed and RNA sequencing was performed.

With `CCCCCCCC/C=C\CCCCCCCC(=O)O` [oleic acid, octadece-9-noic acid] the “myoglobin heme reduction by CYB5R3” value (Recombinant CYB5R3) was “not affected”.

“9-, 10-nitro octadece-9-noic acid [NO2—OA]” was tested, and the “RPS/RPL gene expression compared to Q-NA treatment” value [1] was “opposing effects” and the “myoglobin heme reduction by CYB5R3” value (Recombinant CYB5R3) was “no effect”.

Reference: patent US20240245627A1, “ALKENE QUINONE COMPOUNDS AND METHODS OF USE” (University of Pittsburgh - Of the Commonwealth System of …, priority 2021, published 2024)
